Literature values as cited in patent US20220257506A1, “Alkaline Drink” (WET HOLDINGS (GLOBAL) LIMITED, priority 2019, published 2022).

How the values were obtained:
[1] = humans
[2] = not given; remark: listed apart in the source
[3] = acute dosing, murine stroke models
[4] = acute administration, humans
[5] = test system: testicular endocrine function; conditions: dogs, very high doses
[6] = test system: adrenal and gonadal steroidogenesis; conditions: humans, up to 80 mg/day, basal conditions

## C=C(C)[C@@H]1CCC(C)=C[C@H]1c1c(O)cc(CCCCC)cc1O [CBD, Cannabidiol]
600 mg single dose, nine healthy male volunteers
  decrease of blood pressure: about 6 mm Hg
Single dose, particularly cold stress, post-test periods
  resting blood pressure and blood pressure response to stress: reduces resting blood pressure and the blood pressure response to stress
[1]
  abuse or dependence potential: no effects indicative of any abuse or dependence potential

## CCCCCc1cc(O)c2c(c1)OC(C)(C)[C@@H]1CCC(C)=C[C@@H]21 [THC, (−)-trans-Δ^9-tetrahydrocannabinol]
[2]; acute dosing, anaesthetised animals, conscious animals and animal models of stress or hypertension
  BP and heart rate: reduced BP and heart rate
[2]; chronic dosing, anaesthetised animals
  BF in large arteries: increased BF in large arteries
[2]; chronic dosing, models of stress or hypertension
  BP: reduced BP
[3]
  cerebral BF: increased cerebral BF
[4]
  HR: increased HR

## CC[C@H](C)C(=O)O[C@H]1C[C@@H](C)C=C2C=C[C@H](C)[C@H](CC[C@@H]3C[C@@H](O)CC(=O)O3)[C@H]21 [lovastatin]
[5]
  testicular endocrine function: reduction in testicular endocrine function
[6]
  effect on adrenal and gonadal steroidogenesis: no effect on adrenal and gonadal steroidogenesis
